Measurements taken from patent US20250197414A1, “SALT FORM AND CRYSTAL FORM OF VANIN ENZYME INHIBITOR, METHOD FOR PREPARING SAME, AND USE THEREOF” (SHANGHAI MEIYUE BIOTECH DEVELOPMENT CO., LTD., priority 2022, published 2025).
Like-named read-outs stand apart in the source and are kept apart here.

How the values were obtained:
Format in all cases: physicochemical
[1] = Stability test of mono-L-tartrate, fumarate and D-malate (related substances by HPLC); settings: for Purity (HPLC): in % (unit assumed); for chemical stability: after accelerated high humidity and high temperature testing
Experimental: The stability of the mono-L-tartrate, fumarate, and D-malate of the compound of formula I obtained in examples 1 to 3 was studied. […]
Detection of related substances: Approximately 5 mg of the sample was weighed into a 40 mL sample vial, dissolved in 10 mL of 50% acetonitrile aqueous solution and diluted to the scale, and 5 μL of the sample was injected.

[2] = Solubility test of compound of formula I and its salts at 37° C.; settings: for solubility at 1 h / solubility at 24 h: thermodynamic from solid; for solubility at 1 h / solubility at 24 h / Solubility (mg/mL) (1 h) / Solubility (mg/mL) (24 h): calculated as free base; for solubility at 1 h: read-out: Solubility (mg/mL) (1 h); for solubility at 24 h: read-out: Solubility (mg/mL) (24 h); for solubility (in words): water, pH 7.4 at 37° C.
Experimental: The solubility of the compound of formula I and the L-tartrate, fumarate, and D-malate thereof was studied in water, SGF, FaSSIF, FeSSIF, and pH 7.4 at 37° C.
Experimental method: 30 mg (in water) or 15 mg of the sample was weighed into a 4 mL vial, then 3 mL of the medium to be tested was added thereto, and the resulting mixture was stirred continuously at 37° C. 0.5 mL of the sample was collected at 1 hour and 24 hours, respectively, and centrifuged at 12,000 rpm for 5 minutes. The supernatant was diluted to an appropriate multiple with 50% acetonitrile and its concentration was determined.
Therefore, 13 mg of the fumarate of the compound of formula I was weighed into a 25 mL volumetric flask (approximately 10 mg added to the 25 mL volumetric flask, calculated as free base), dissolved in 50% acetonitrile aqueous solution and diluted to the scale, and two samples were prepared in parallel. STD-1 was diluted to 200 μg/mL, 50 μg/mL, and 10 μg/mL with 50% acetonitrile aqueous solution. 5 μL of the sample was injected, and the standard curve was plotted.

[3] = Hygroscopicity (dynamic vapor sorption classification)
Experimental: Approximately 10 mg of the sample was weighed at 25° C. under a 0% to 95% to 0% relative humidity (RH) cycle for testing the moisture absorption/desorption characteristics.

[4] = Stability study on crystal form A (related substances by HPLC, crystal form by XRPD)
Experimental: Detection method of stability sample related substances: Approximately 5 mg of the sample was weighed, added with 5 mL of 20% methanol, ultrasonicated for a few seconds so that the compound can be completely dissolved, and 5 μL of the sample was injected for testing of related substances.

[5] = pH 7.4 medium, aqueous buffer, pH 7.4, 37° C.
[6] = simulated gastric fluid, SGF, 37° C.

For `O=C(c1cnc(N[C@@H]2CCc3ncccc32)nc1)N1CCC2(CCOCC2)C1` [Mono-L-tartrate of compound of formula I], the Total impurities % ([1]; 40° C./75% RH-closed-2 wks) was 0.06%, the “Purity (HPLC)” value ([1]; 40° C./75% RH-closed-2 wks) was 99.94 and the Total impurities % ([1]; 40° C./75% RH-open-2 wks) was 0.10%. For the same compound, the “Purity (HPLC)” value ([1]; 40° C./75% RH-open-2 wks) was 99.90, the Total impurities % ([1]; 60° C.-open-2 wks) was 0.08% and the “Purity (HPLC)” value ([1]; 60° C.-open-2 wks) was 99.92. The Total impurities % ([1]; Initial) was 0.06%, the “Purity (HPLC)” value ([1]; Initial) was 99.94 and the chemical stability [1] was “good chemical stability”. For the same compound, the “Final pH” value ([2]; FaSSIF, 37° C.) was 3.84, the Sample appearance ([2]; FaSSIF, 37° C.) was “Clarified solution” and the Sample appearance ([2]; FeSSIF, 37° C.) was “Clarified solution”. For the same compound, the Sample appearance ([2]; SGF, 37° C.) was “Clarified solution”, the “Final pH” value ([2]; Water, 37° C.) was 3.21 and the Sample appearance ([2]; Water, 37° C.) was “Clarified solution”. For the same compound, the Sample appearance ([2]; pH 7.4, 37° C.) was “Clarified solution”, the solubility at 1 h [2, 5] was 5.09 mg/mL and the solubility at 24 h [2, 5] was 4.97 mg/mL. The solubility at 1 h [2, 6] was 5.19 mg/mL, the solubility at 24 h [2, 6] was 5.25 mg/mL and the solubility at 1 h ([2]; FaSSIF, 37° C.) was 5.08 mg/mL. The solubility at 24 h ([2]; FaSSIF, 37° C.) was 5.12 mg/mL, the solubility at 1 h ([2]; FeSSIF, 37° C.) was 5.12 mg/mL and the solubility at 24 h ([2]; FeSSIF, 37° C.) was 5.02 mg/mL. The solubility at 1 h ([2]; Water, 37° C.) was 10.3 mg/mL, the solubility at 24 h ([2]; Water, 37° C.) was 10.5 mg/mL and the “solubility (in words)” value ([2]; SGF, FaSSIF, FeSSIF) was “good solubility”.
For `O=C(c1ccc(N[C@@H]2CCc3ncccc32)nc1)N1CCC2(CCOCC2)C1` [Compound of formula I], the “Final pH” value ([2]; FaSSIF, 37° C.) was 6.38, the Sample appearance ([2]; FaSSIF, 37° C.) was “Clarified solution” and the “Final pH” value ([2]; FeSSIF, 37° C.) was 4.99. The Sample appearance ([2]; FeSSIF, 37° C.) was “Clarified solution”, the “Final pH” value ([2]; SGF, 37° C.) was 1.37 and the Sample appearance ([2]; SGF, 37° C.) was “Clarified solution”. For the same compound, the “Final pH” value ([2]; Water, 37° C.) was 7.32, the Sample appearance ([2]; Water, 37° C.) was “Clarified solution” and the “Final pH” value ([2]; pH 7.4, 37° C.) was 7.56. The Sample appearance ([2]; pH 7.4, 37° C.) was “Clarified solution”, the solubility at 1 h [2, 5] was 5.11 mg/mL and the solubility at 24 h [2, 5] was 5.2 mg/mL. The solubility at 1 h [2, 6] was 5.23 mg/mL, the solubility at 24 h [2, 6] was 5.39 mg/mL and the solubility at 1 h ([2]; FaSSIF, 37° C.) was 5.1 mg/mL. It also gave a solubility at 24 h ([2]; FaSSIF, 37° C.) of 5.22 mg/mL, a solubility at 1 h ([2]; FeSSIF, 37° C.) of 5.46 mg/mL and a solubility at 24 h ([2]; FeSSIF, 37° C.) of 5.33 mg/mL. The solubility at 1 h ([2]; Water, 37° C.) was 10.6 mg/mL, the solubility at 24 h ([2]; Water, 37° C.) was 10.8 mg/mL and the “solubility (in words)” value ([2]; SGF, FaSSIF, FeSSIF) was “good solubility”. The hygroscopicity [3] was “highly hygroscopic”.
`O=C(O)C(O)C(O)C(=O)O.O=C(c1cnc(NC2CCc3ncccc32)nc1)N1CCC2(CCOCC2)C1` (centres unmarked) [crystal form A] gave an Individual impurities % ([4]; 40° C./75% RH-closed-2 wks) of 0.04%, a Purity % ([4]; 40° C./75% RH-closed-2 wks) of 99.92% and a Total impurities % ([4]; 40° C./75% RH-closed-2 wks) of 0.08%. The Individual impurities % ([4]; 40° C./75% RH-open-2 wks) was 0.06%, the Purity % ([4]; 40° C./75% RH-open-2 wks) was 99.89% and the Total impurities % ([4]; 40° C./75% RH-open-2 wks) was 0.11%. It also gave an Individual impurities % ([4]; 60° C.-open-2 wks) of 0.06%, a Purity % ([4]; 60° C.-open-2 wks) of 99.87% and a Total impurities % ([4]; 60° C.-open-2 wks) of 0.13%. For the same compound, the Individual impurities % ([4]; 80% RH-open-2 wks) was 0.05%, the Purity % ([4]; 80% RH-open-2 wks) was 99.90% and the Total impurities % ([4]; 80% RH-open-2 wks) was 0.10%. For the same compound, the Individual impurities % ([4]; 92.5% RH-open-2 wks) was 0.06%, the Purity % ([4]; 92.5% RH-open-2 wks) was 99.89% and the Total impurities % ([4]; 92.5% RH-open-2 wks) was 0.11%. The Individual impurities % ([4]; Initial) was 0.04%, the Purity % ([4]; Initial) was 99.92% and the Total impurities % ([4]; Initial) was 0.08%. The “change of crystal form” value ([4]; at 60° C. under high humidity conditions of 80% RH) was “has not changed”, the “crystal form obtained after exposure” value ([4]; exposed to 92.5% RH for 3 days) was “crystal form B” and the “stability (in words)” value ([4]; high temperature and high humidity conditions) was “good stability”.
For `O=C(O)CC(O)C(=O)O.O=C(c1cnc(NC2CCc3ncccc32)nc1)N1CCC2(CCOCC2)C1` [D-malate of compound of formula I], the Total impurities % ([1]; 40° C./75% RH-closed-20 d) was 0.09%, the “Purity (HPLC)” value ([1]; 40° C./75% RH-closed-20 d) was 99.91 and the Total impurities % ([1]; 40° C./75% RH-open-20 d) was 0.10%. The “Purity (HPLC)” value ([1]; 40° C./75% RH-open-20 d) was 99.90, the Total impurities % ([1]; 60° C.-open-20 d) was 0.18% and the “Purity (HPLC)” value ([1]; 60° C.-open-20 d) was 99.82. For the same compound, the Total impurities % ([1]; Initial) was 0.11%, the “Purity (HPLC)” value ([1]; Initial) was 99.89 and the chemical stability [1] was “good chemical stability”. For the same compound, the Sample appearance ([2]; FaSSIF, 37° C.) was “Clarified solution”, the “Solubility (mg/mL) (1 h)” value ([2]; FaSSIF, 37° C.) was 5.26 mg/mL and the “Solubility (mg/mL) (24 h)” value ([2]; FaSSIF, 37° C.) was 5.36 mg/mL. The Sample appearance ([2]; FeSSIF, 37° C.) was “Clarified solution”, the “Solubility (mg/mL) (1 h)” value ([2]; FeSSIF, 37° C.) was 5.31 mg/mL and the “Solubility (mg/mL) (24 h)” value ([2]; FeSSIF, 37° C.) was 5.28 mg/mL. The Sample appearance ([2]; SGF, 37° C.) was “Clarified solution”, the “Solubility (mg/mL) (1 h)” value ([2]; SGF, 37° C.) was 5.36 mg/mL and the “Solubility (mg/mL) (24 h)” value ([2]; SGF, 37° C.) was 5.37 mg/mL. For the same compound, the “Final pH” value ([2]; Water, 37° C.) was 3.75, the Sample appearance ([2]; Water, 37° C.) was “Clarified solution” and the “Solubility (mg/mL) (1 h)” value ([2]; Water, 37° C.) was 10.60 mg/mL. The “Solubility (mg/mL) (24 h)” value ([2]; Water, 37° C.) was 10.76 mg/mL, the Sample appearance ([2]; pH 7.4, 37° C.) was “Clarified solution” and the “Solubility (mg/mL) (1 h)” value ([2]; pH 7.4, 37° C.) was 5.54 mg/mL. The “Solubility (mg/mL) (24 h)” value ([2]; pH 7.4, 37° C.) was 5.53 mg/mL and the “solubility (in words)” value ([2]; SGF, FaSSIF, FeSSIF) was “good solubility”.
In the case of `O=C(O)C=CC(=O)O.O=C(c1cnc(NC2CCc3ncccc32)nc1)N1CCC2(CCOCC2)C1` (centres unmarked) [Fumarate of compound of formula I], the Total impurities % ([1]; 40° C./75% RH-closed-2 wks) is reported as 0.30%, the “Purity (HPLC)” value ([1]; 40° C./75% RH-closed-2 wks) is reported as 99.70 and the Total impurities % ([1]; 40° C./75% RH-open-2 wks) is reported as 0.31%. The “Purity (HPLC)” value ([1]; 40° C./75% RH-open-2 wks) was 99.69, the Total impurities % ([1]; 60° C.-open-2 wks) was 0.32% and the “Purity (HPLC)” value ([1]; 60° C.-open-2 wks) was 99.68. The Total impurities % ([1]; Initial) was 0.31%, the “Purity (HPLC)” value ([1]; Initial) was 99.69 and the chemical stability [1] was “good chemical stability”. For the same compound, the Sample appearance ([2]; FaSSIF, 37° C.) was “Clarified solution”, the “Solubility (mg/mL) (1 h)” value ([2]; FaSSIF, 37° C.) was 5.44 mg/mL and the “Solubility (mg/mL) (24 h)” value ([2]; FaSSIF, 37° C.) was 5.57 mg/mL. For the same compound, the Sample appearance ([2]; FeSSIF, 37° C.) was “Clarified solution”, the “Solubility (mg/mL) (1 h)” value ([2]; FeSSIF, 37° C.) was 5.75 mg/mL and the “Solubility (mg/mL) (24 h)” value ([2]; FeSSIF, 37° C.) was 5.63 mg/mL. The Sample appearance ([2]; SGF, 37° C.) was “Clarified solution”, the “Solubility (mg/mL) (1 h)” value ([2]; SGF, 37° C.) was 5.37 mg/mL and the “Solubility (mg/mL) (24 h)” value ([2]; SGF, 37° C.) was 5.46 mg/mL. For the same compound, the “Final pH” value ([2]; Water, 37° C.) was 3.32, the Sample appearance ([2]; Water, 37° C.) was “Clarified solution” and the “Solubility (mg/mL) (1 h)” value ([2]; Water, 37° C.) was 11.05 mg/mL. For the same compound, the “Solubility (mg/mL) (24 h)” value ([2]; Water, 37° C.) was 11.37 mg/mL, the Sample appearance ([2]; pH 7.4, 37° C.) was “Clarified solution” and the “Solubility (mg/mL) (1 h)” value ([2]; pH 7.4, 37° C.) was 5.65 mg/mL. The “Solubility (mg/mL) (24 h)” value ([2]; pH 7.4, 37° C.) was 5.61 mg/mL and the “solubility (in words)” value ([2]; SGF, FaSSIF, FeSSIF) was “good solubility”.
